The results in this text go back to patent US9763961B2, “Compositions that modulate the activity of estrogen receptors and estrogen-related receptors and methods for use” (CITY OF HOPE, priority 2005, dated 2017).

The IC50 is the concentration that gives 50% inhibition.

Assay [1] addresses T1, ERRγ (Homo sapiens, UniProt P62508).
T1 construct: expressed in transfected cells; host or cells: HeLa
T1 sequence (P62508 1-458): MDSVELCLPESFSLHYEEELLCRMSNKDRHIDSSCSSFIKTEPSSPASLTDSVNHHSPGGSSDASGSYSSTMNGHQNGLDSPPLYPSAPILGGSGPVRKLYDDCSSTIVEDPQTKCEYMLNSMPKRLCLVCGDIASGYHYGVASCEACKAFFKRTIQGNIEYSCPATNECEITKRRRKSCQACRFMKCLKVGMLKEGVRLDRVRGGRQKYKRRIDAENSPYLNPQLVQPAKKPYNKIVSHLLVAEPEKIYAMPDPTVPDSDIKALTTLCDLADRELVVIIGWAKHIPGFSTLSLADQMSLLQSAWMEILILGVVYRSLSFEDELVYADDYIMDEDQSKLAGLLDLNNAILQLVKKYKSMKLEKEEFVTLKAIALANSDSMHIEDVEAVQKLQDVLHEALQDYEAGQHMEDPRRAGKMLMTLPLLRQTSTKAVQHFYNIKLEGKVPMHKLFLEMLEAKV
As to the kind of experiment: Transient transfection luciferase assay with pSG5-ERRg and SF1-SV40 reporter in HeLa cells. In kind it is cell-based. As to conditions: for IC50: HeLa cells, 24 h, average of at least two experiments; for Antagonistic properties on ERRg (in words): transient transfection.

Assay [2] addresses T2, ERRα (Homo sapiens, UniProt P11474).
T2 sequence (P11474 1-423): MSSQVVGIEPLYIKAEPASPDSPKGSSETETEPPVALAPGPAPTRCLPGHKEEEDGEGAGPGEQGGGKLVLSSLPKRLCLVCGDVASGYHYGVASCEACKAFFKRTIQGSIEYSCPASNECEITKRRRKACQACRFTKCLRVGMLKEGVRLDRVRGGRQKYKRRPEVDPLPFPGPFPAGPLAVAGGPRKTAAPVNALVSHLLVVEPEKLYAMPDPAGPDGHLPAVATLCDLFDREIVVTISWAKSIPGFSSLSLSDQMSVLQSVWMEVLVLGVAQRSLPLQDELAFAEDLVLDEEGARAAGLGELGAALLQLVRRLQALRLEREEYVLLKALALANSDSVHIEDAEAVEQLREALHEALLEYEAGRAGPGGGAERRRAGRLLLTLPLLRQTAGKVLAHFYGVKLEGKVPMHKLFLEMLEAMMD
Nature of the assay: Competitive [3H] genistein binding whole cell assay in ERRα-positive SK-BR-3 cells. Also on record: endogenous in cells; host or cells: SK-BR-3. The conditions noted are these: FIG. 4. How it is done: In order to directly measure the binding affinities of agonists and inverse agonists to ERRα, we performed a competitive ERR binding whole cell assay using ERRα-positive SK-BR-3 cells. This method is developed based on the ER binding assay posted by the National Toxicology Program at the NIEHS <<http://iccvam.niehs.nih.gov/methods/endodocs/final/erbndbrd/erbdappx/B1.pdf>>. […] After the cells were washed twice with PBS, 250 μl ethanol will be added to each well for 20 min. Aliquots of ethanol extract was mixed with scintillation liquid for radioactivity measurements. The experiments have been performed in triplicate.
In addition to reporter activity assay, in order to evaluate the interaction of chalcones with ERRα, a competitive binding assay was performed.
Referring to FIG. 4, SK-BR-3 cells, which are positive for ERRα, were incubated with 1 μM of [3H] GEN and increasing concentrations of unlabeled GEN or Compound Nos. 1-9 or 7-5. After 1 h of incubation, the cells were washed with 1× PBS, and [3H] GEN was then extracted from the cells by an incubation of 30 min in 250 μl of ethanol. Values represent the mean±SD.

For assay [3], the target named is T3, GAL4-human ERRα LBD fusion (Homo sapiens, UniProt P11474).
T3 construct: GAL4-human ERRα LBD fusion expression plasmid; expressed in transfected cells; host or cells: HeLa
T3 sequence (P11474 193-421 limits assumed): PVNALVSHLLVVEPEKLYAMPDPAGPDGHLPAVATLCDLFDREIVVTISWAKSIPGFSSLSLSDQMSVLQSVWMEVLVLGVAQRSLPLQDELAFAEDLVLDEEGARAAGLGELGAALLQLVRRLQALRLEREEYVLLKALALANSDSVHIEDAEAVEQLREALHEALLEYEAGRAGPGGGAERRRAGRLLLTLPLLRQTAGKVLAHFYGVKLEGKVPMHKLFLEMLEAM
As to the kind of experiment: Transient transfection luciferase assay, GAL4-human ERRα LBD fusion with Gal4-TK-Luc reporter in HeLa cells. In kind it is cell-based. As to conditions: pM-ERRα LBD, 24 h, mean ± SD. On the procedure: Referring to FIG. 2, we have also prepared GAL4-ERRα expression plasmid and luciferase reporter plasmids with GAL4 response element. This is a more sensitive assay method than that using pSG5-ERRα and ERE luciferase reporter plasmids.
To evaluate the functional significance of the interaction of chalcones with ERRα, we incubated these compounds with HeLa cells which were transiently transfected with human ERRα expression plasmid and a luciferase reporter plasmid containing SF1 binding site. […] In order to confirm the results above, HeLa cells were transiently transfected with GAL4-human ERRα LBD fusion expression plasmid and a luciferase reporter plasmid containing GAL4 binding site. […] Most of the compounds, however, have similar IC50 value, and have a similar potency.
Referring to FIG. 2, HeLa cells were cotransfected with pM-ERRα LBD (0.5 μg) and luciferase reporter plasmid containing GAL4 binding site and TK promoter (0.25 μg). The transfected cells were incubated with Compound No. 1-9 for 24 h. After cells were washed with 1× PBS, luciferase activity was measured. Values represent the mean±SD.

Assay [4] concerns the target T4, ERβ (Homo sapiens, UniProt Q92731).
T4 construct: expressed in transfected cells; host or cells: HeLa
As to the kind of experiment: Transient transfection luciferase assay with pCI-ERb and ERE-SV40 reporter in HeLa cells, with 100 pM estradiol. The class given is cell-based. The conditions noted are these: for IC50: HeLa cells, in the presence of 100 pM of estradiol, 24 h; for Antagonistic properties on ERb (in words): transient transfection.

Assay [5] concerns the target T5, ERα (Homo sapiens, UniProt P03372).
T5 construct: expressed in transfected cells; host or cells: HeLa
T5 sequence (P03372 1-595): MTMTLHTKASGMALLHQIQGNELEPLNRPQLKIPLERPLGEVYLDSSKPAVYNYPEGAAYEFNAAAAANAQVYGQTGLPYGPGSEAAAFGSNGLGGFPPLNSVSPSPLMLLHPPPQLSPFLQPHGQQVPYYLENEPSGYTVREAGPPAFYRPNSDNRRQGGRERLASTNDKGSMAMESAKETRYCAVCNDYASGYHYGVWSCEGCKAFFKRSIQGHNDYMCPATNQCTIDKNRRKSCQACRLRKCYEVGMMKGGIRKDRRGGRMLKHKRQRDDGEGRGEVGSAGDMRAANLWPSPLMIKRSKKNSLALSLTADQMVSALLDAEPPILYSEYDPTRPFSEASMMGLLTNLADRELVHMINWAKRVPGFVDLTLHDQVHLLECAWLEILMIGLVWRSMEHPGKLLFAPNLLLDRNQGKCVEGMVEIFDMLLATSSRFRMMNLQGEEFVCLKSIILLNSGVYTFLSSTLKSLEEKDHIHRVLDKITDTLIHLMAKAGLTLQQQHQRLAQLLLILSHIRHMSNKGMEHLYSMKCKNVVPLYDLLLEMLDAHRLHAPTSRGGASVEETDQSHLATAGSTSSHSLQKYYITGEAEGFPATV
Nature of the assay: Transient transfection luciferase assay with pSG5-ERa and ERE-SV40 reporter in HeLa cells, with 100 pM estradiol. The class given is cell-based. The conditions noted are these: for IC50: HeLa cells, in the presence of 100 pM of estradiol, 24 h; for Antagonistic properties on ERa (in words): transient transfection.

T4 sequence (Q92731 whole entry, species assumed): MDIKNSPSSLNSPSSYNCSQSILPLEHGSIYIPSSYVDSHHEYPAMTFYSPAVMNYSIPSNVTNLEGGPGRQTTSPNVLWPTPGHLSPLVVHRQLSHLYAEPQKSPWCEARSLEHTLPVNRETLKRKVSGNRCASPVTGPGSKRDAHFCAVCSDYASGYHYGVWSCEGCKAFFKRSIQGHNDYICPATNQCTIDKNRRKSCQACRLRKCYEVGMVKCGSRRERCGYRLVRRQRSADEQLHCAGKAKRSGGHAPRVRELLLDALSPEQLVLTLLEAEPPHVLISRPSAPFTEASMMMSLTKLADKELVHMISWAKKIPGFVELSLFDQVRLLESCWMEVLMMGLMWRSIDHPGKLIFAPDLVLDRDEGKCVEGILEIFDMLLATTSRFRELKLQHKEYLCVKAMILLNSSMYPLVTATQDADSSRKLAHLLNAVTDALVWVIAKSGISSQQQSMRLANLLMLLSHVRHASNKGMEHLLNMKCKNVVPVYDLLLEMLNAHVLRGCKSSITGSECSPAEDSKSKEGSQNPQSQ

Regarding `COc1cccc(/C=C/C(=O)c2ccc(O)cc2O)c1OC` [Compound No. 1-9, 2′,4′-Dihydroxy-2,3-dimethoxychalcone], in assay [1], half-maximal inhibition (IC50) was put at 8 µM and the “Antagonistic properties on ERRg (in words)” value is reported as “showed antagonistic properties”. Also, in assay [2], the “Inhibition of binding of [3H] labeled genistein (in words)” value was “competitively inhibited the binding of [3H] labeled genistein in a dose-dependent manner”. In addition, in assay [3], half-maximal inhibition (IC50) required 1.1e+06 ± 700000 pM. In assay [4], the IC50 is 4.6 µM and the “Antagonistic properties on ERb (in words)” value is recorded as “showed antagonistic properties”. In assay [5], the IC50 was determined as 3.3 µM and the “Antagonistic properties on ERa (in words)” value is “showed antagonistic properties”.

Take `O=C(/C=C/c1ccccc1O)c1ccc(O)cc1O` [Compound No. 7-5, 2,2′,4′-Trihydroxychalcone]: the 50% inhibitory concentration (IC50) in assay [1] was 3.7 µM; in assay [3] it was 900000 ± 400000 pM; in assay [4], 7.4 µM; in assay [5], 3.7 µM. Moreover, the “Antagonistic properties on ERRg (in words)” value in assay [1] is “showed antagonistic properties”. Besides, the “Inhibition of binding of [3H] labeled genistein (in words)” value in assay [2] is “competitively inhibited the binding of [3H] labeled genistein in a dose-dependent manner”. Besides, in assay [4], the “Antagonistic properties on ERb (in words)” value was “showed antagonistic properties”. In assay [5], the “Antagonistic properties on ERa (in words)” value was “showed antagonistic properties”.
